Laboratory results from PubChem BioAssay AID280 (DTP/NCI, 2004).
“And” between values parts separate entries of the source, which are not always exact repeats. Equal values may be shown once. Inconclusive results and toxic doses are left out.

System: nude mice, LOX melanoma ip, survival T/C
Assay: NCI In Vivo Anticancer Drug Screen. Data for tumor model Human Amelanotic Melanoma (LOX) (intraperitoneal) in NU/NU BALB/C (nude) mice
Conditions: endpoint: median survival time, higher = longer survival
Method: The antitumor activity of compounds was measured in mice bearing transplantable tumors. Survival or tumor size were measured and the results are expressed as the measurement made in the treated group (T) divided by the measurement made in the vehicle treated control group (C). The tumor model used in this assay is Human Amelanotic Melanoma (LOX) (intraperitoneal) in NU/NU BALB/C (nude) mice

[1] = dose: 15.0 mg/kg/injection, schedule: Q04DX003 (ip), vehicle: saline
[2] = dose: 30.0 mg/kg/injection, schedule: Q04DX003 (ip), vehicle: saline
[3] = dose: 60.0 mg/kg/injection, schedule: Q04DX003 (ip), vehicle: saline
[4] = dose: 75.0 mg/kg/injection, schedule: Q04DX003 (ip), vehicle: saline with Tween-80
[5] = dose: 150.0 mg/kg/injection, schedule: Q04DX003 (ip), vehicle: saline with Tween-80
[6] = dose: 300.0 mg/kg/injection, schedule: Q04DX003 (ip), vehicle: saline with Tween-80
[7] = dose: 600.0 mg/kg/injection, schedule: Q04DX003 (ip), vehicle: saline with Tween-80
[8] = dose: 50.0 mg/kg/injection, schedule: Q04DX003 (ip), vehicle: Klucel (hydroxypropylcellulose) (HPC)
[9] = dose: 2.5 mg/kg/injection, schedule: Q04DX003 (ip), vehicle: Klucel (hydroxypropylcellulose) (HPC)
[10] = dose: 5.0 mg/kg/injection, schedule: Q04DX003 (ip), vehicle: Klucel (hydroxypropylcellulose) (HPC)
[11] = dose: 10.0 mg/kg/injection, schedule: Q04DX003 (ip), vehicle: Klucel (hydroxypropylcellulose) (HPC)
[12] = dose: 20.0 mg/kg/injection, schedule: Q04DX003 (ip), vehicle: Klucel (hydroxypropylcellulose) (HPC)

With `Nc1ncc(C2OC(CO)C(O)C2O)c(=O)[nH]1` (configuration not stated) the T/C (dose: 62.5 mg/kg/injection, schedule: Q04DX003 (ip), vehicle: saline) was 112 % of control, the T/C (dose: 125.0 mg/kg/injection, schedule: Q04DX003 (ip), vehicle: saline) was 109 % of control and the T/C (dose: 250.0 mg/kg/injection, schedule: Q04DX003 (ip), vehicle: saline) was 100 % of control.

With `O=c1[nH]cc(F)c(=O)[nH]1` the T/C (dose: 5.0 mg/kg/injection, schedule: Q01DX005 (ip), vehicle: saline) was 123 % of control, the T/C (dose: 5.0 mg/kg/injection, schedule: Q01DX015 (ip), vehicle: saline) was 115 % of control and the T/C (dose: 10.0 mg/kg/injection, schedule: Q01DX015 (ip), vehicle: saline) was 224 % of control. The T/C (dose: 10.0 mg/kg/injection, schedule: Q04DX003 (ip), vehicle: saline) was 163 % of control, the T/C [1] was 108 % of control and the T/C (dose: 20.0 mg/kg/injection, schedule: Q01DX005 (ip), vehicle: saline) was 166 % of control. For the same molecule, the T/C (dose: 20.0 mg/kg/injection, schedule: Q01DX015 (ip), vehicle: saline) was 211 % of control, the T/C (dose: 20.0 mg/kg/injection, schedule: Q04DX003 (ip), vehicle: saline) was 191 % of control and the T/C [2] was 179 % of control. For the same molecule, the T/C (dose: 40.0 mg/kg/injection, schedule: Q01DX005 (ip), vehicle: saline) was 160 % of control and the T/C [3] was 185 % of control.

With `Nc1ccn([C@@H](C=O)C[C@@H](C=O)CO)c(=O)n1` the T/C (dose: 18.75 mg/kg/injection, schedule: Q04DX003 (ip), vehicle: saline) was 105 % of control, the T/C (dose: 37.5 mg/kg/injection, schedule: Q04DX003 (ip), vehicle: saline) was 107 % of control and the T/C (dose: 75.0 mg/kg/injection, schedule: Q04DX003 (ip), vehicle: saline) was 103 % of control. The T/C (dose: 150.0 mg/kg/injection, schedule: Q04DX003 (ip), vehicle: saline) was 103 % of control and the T/C (dose: 300.0 mg/kg/injection, schedule: Q04DX003 (ip), vehicle: saline) was 102 % of control.

For `Clc1cccc(Cl)c1C(Nc1nncs1)Nc1nncs1`, the T/C (dose: 50.0 mg/kg/injection, schedule: Q04DX003 (ip), vehicle: saline with Tween-80) was 106 % of control and the T/C (dose: 100.0 mg/kg/injection, schedule: Q04DX003 (ip), vehicle: saline with Tween-80) was 106 % of control.

In the case of `COc1cccc(Sc2ccc([N+](=O)[O-])c3no[n+]([O-])c23)c1`, the T/C (dose: 37.5 mg/kg/injection, schedule: Q04DX003 (ip), vehicle: saline with Tween-80) is reported as 101 % of control, the T/C [4] is reported as 120 % of control and the T/C [5] is reported as 89 % of control. The T/C [6] was 101 % of control.

For `O=C1c2ccccc2C(Cl)(c2ccc(Cl)cc2)c2ccc(Cl)cc21` (configuration not stated), the T/C [4] was 93 % of control, the T/C [5] was 116 % of control and the T/C [6] was 92 % of control. The T/C [7] was 87 % of control and the T/C (dose: 1200.0 mg/kg/injection, schedule: Q04DX003 (ip), vehicle: saline with Tween-80) was 93 % of control.

With `Cc1ccc(C2=CSC3=NCCN23)cc1Cl` the T/C (dose: 12.5 mg/kg/injection, schedule: Q04DX003 (ip), vehicle: Klucel (hydroxypropylcellulose) (HPC)) was 97 % of control, the T/C (dose: 25.0 mg/kg/injection, schedule: Q04DX003 (ip), vehicle: Klucel (hydroxypropylcellulose) (HPC)) was 96 % of control and the T/C [8] was 101 % of control.

`CCOC(=O)NC1CCc2cc(OC)c(OC)c(OC)c2-c2ccc(OC)c(=O)cc21` (configuration not stated) was tested, and the T/C [9] was 154 % of control, the T/C [10] was 154 % of control and the T/C [11] was 178 % of control. For the same molecule, the T/C [12] was 214 % of control.

In the case of `NC(CNC(=O)CBr)C(=O)O` (configuration not stated), the T/C (dose: 12.5 mg/kg/injection, schedule: Q04DX003 (ip), vehicle: water) is reported as 97 % of control, the T/C (dose: 25.0 mg/kg/injection, schedule: Q04DX003 (ip), vehicle: water) is reported as 93 % of control and the T/C (dose: 50.0 mg/kg/injection, schedule: Q04DX003 (ip), vehicle: water) is reported as 98 % of control. For the same molecule, the T/C (dose: 100.0 mg/kg/injection, schedule: Q04DX003 (ip), vehicle: water) was 90 % of control and the T/C (dose: 200.0 mg/kg/injection, schedule: Q04DX003 (ip), vehicle: water) was 88 % of control.

In the case of `[N-]=[N+]=[N-]`, the T/C (dose: 1.5 mg/kg/injection, schedule: Q04DX003 (ip), vehicle: water) is reported as 99 % of control, the T/C (dose: 3.0 mg/kg/injection, schedule: Q04DX003 (ip), vehicle: water) is reported as 104 % of control and the T/C (dose: 12.0 mg/kg/injection, schedule: Q04DX003 (ip), vehicle: water) is reported as 89 % of control. For the same molecule, the T/C (dose: 24.0 mg/kg/injection, schedule: Q04DX003 (ip), vehicle: water) was 104 % of control.

With `C=C(C)/C([O-])=N/[N+](C)(C)CC(O)CCCCCCCCCCCC` (configuration not stated) the T/C [9] was 88 % of control, the T/C [10] was 91 % of control and the T/C [11] was 91 % of control and 98 % of control. For the same molecule, the T/C [12] was 101 % of control, the T/C (dose: 40.0 mg/kg/injection, schedule: Q04DX003 (ip), vehicle: Klucel (hydroxypropylcellulose) (HPC)) was 102 % of control and 105 % of control and the T/C (dose: 80.0 mg/kg/injection, schedule: Q04DX003 (ip), vehicle: Klucel (hydroxypropylcellulose) (HPC)) was 105 % of control. For the same molecule, the T/C (dose: 160.0 mg/kg/injection, schedule: Q04DX003 (ip), vehicle: Klucel (hydroxypropylcellulose) (HPC)) was 87 % of control.

In the case of `O=C(NC(Cc1ccc(I)cc1)C(=O)O)c1cccc(Br)c1` (configuration not stated), the T/C [8] is reported as 112 % of control, the T/C (dose: 75.0 mg/kg/injection, schedule: Q04DX003 (ip), vehicle: Klucel (hydroxypropylcellulose) (HPC)) is reported as 105 % of control and the T/C (dose: 100.0 mg/kg/injection, schedule: Q04DX003 (ip), vehicle: Klucel (hydroxypropylcellulose) (HPC)) is reported as 112 % of control. For the same molecule, the T/C (dose: 150.0 mg/kg/injection, schedule: Q04DX003 (ip), vehicle: Klucel (hydroxypropylcellulose) (HPC)) was 89 % of control, the T/C (dose: 200.0 mg/kg/injection, schedule: Q04DX003 (ip), vehicle: Klucel (hydroxypropylcellulose) (HPC)) was 103 % of control and the T/C (dose: 300.0 mg/kg/injection, schedule: Q04DX003 (ip), vehicle: Klucel (hydroxypropylcellulose) (HPC)) was 96 % of control. The T/C (dose: 400.0 mg/kg/injection, schedule: Q04DX003 (ip), vehicle: Klucel (hydroxypropylcellulose) (HPC)) was 87 % of control.

`COc1ccc(N=N/N=c2\sc3cc(OC)ccc3n2C)cc1` was tested, and the T/C (dose: 15.0 mg/kg/injection, schedule: Q04DX003 (ip), vehicle: saline with Tween-80) was 121 % of control, the T/C (dose: 30.0 mg/kg/injection, schedule: Q04DX003 (ip), vehicle: saline with Tween-80) was 117 % of control and the T/C (dose: 120.0 mg/kg/injection, schedule: Q04DX003 (ip), vehicle: saline with Tween-80) was 121 % of control.

`O=C(Nc1cccc(Cl)c1)ON1C(=O)C2C(C1=O)C1(Cl)C(Cl)C(Cl)C2(Cl)C1(Cl)Cl` (configuration not stated) was tested, and the T/C [4] was 99 % of control, the T/C [5] was 86 % of control and the T/C [6] was 90 % of control. For the same molecule, the T/C [7] was 101 % of control.

For `CC(O)CCC(=O)c1ccoc1` (configuration not stated), the T/C (dose: 10.8 mg/kg/injection, schedule: Q01DX001 (ip), vehicle: propolene glycol) was 103 % of control and 118 % of control and 119 % of control and the T/C (dose: 30.0 mg/kg/injection, schedule: Q01DX001 (ip), vehicle: propolene glycol) was 117 % of control.

In the case of `c1ccc2[nH]c(CN(CCN(Cc3nc4ccccc4[nH]3)Cc3nc4ccccc4[nH]3)Cc3nc4ccccc4[nH]3)nc2c1`, the T/C (dose: 6.25 mg/kg/injection, schedule: Q04DX003 (ip), vehicle: DMSO) is reported as 102 % of control, the T/C (dose: 12.5 mg/kg/injection, schedule: Q04DX003 (ip), vehicle: DMSO) is reported as 110 % of control and the T/C (dose: 25.0 mg/kg/injection, schedule: Q04DX003 (ip), vehicle: DMSO) is reported as 113 % of control. For the same molecule, the T/C (dose: 50.0 mg/kg/injection, schedule: Q04DX003 (ip), vehicle: DMSO) was 111 % of control.

`CCOC(=O)N(C)N=NC` was tested, and the T/C (dose: 7.5 mg/kg/injection, schedule: Q04DX003 (ip), vehicle: saline) was 108 % of control and 109 % of control, the T/C [1] was 107 % of control and 114 % of control (2×) and the T/C [2] was 121 % of control. The T/C [3] was 194 % of control and the T/C (dose: 120.0 mg/kg/injection, schedule: Q04DX003 (ip), vehicle: saline) was 172 % of control and 191 % of control and 205 % of control.

With `CCC1OC(OC)C=CC1=O` (configuration not stated) the T/C (dose: 25.0 mg/kg/injection, schedule: Q04DX003 (ip), vehicle: suspension in saline) was 96 % of control, the T/C (dose: 50.0 mg/kg/injection, schedule: Q04DX003 (ip), vehicle: suspension in saline) was 104 % of control and the T/C (dose: 100.0 mg/kg/injection, schedule: Q04DX003 (ip), vehicle: suspension in saline) was 113 % of control.

For `CNC(=O)/C=C/C1=CN2C(=O)c3ccc(C)c(O)c3NC(OC)C2C1` (configuration not stated), the T/C (dose: 200.0 micrograms/kg/injection, schedule: Q04DX003 (ip), vehicle: saline) was 121 % of control.
